According to patent US10092570B2 (Incyte Corporation, priority 2011, dated 2018):

Molecular target: PI3Kδ (p110δ/p85α) (Homo sapiens (Human), UniProt O00329)
Experiment: Example A3: PI3Kδ scintillation proximity assay
Assay type: biochemical
Settings: scintillation proximity assay, 20 μM ATP, 4 nM PI3Kδ; read-out: PI3Kδ SPA IC50
How it was run: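 p110δ/p85α (4 nM) phosphorylated 20 μM PIP2 with 20 μM ATP plus [γ-33P]ATP in MOPS pH 6.7, MgCl2, DTT, CHAPS, 0.5% DMSO, at RT. Stopped with EDTA/excess ATP, product captured on WGA SPA beads overnight and counted; IC50 from percent control activity versus log inhibitor.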

Chain of PI3Kδ (p110δ/p85α) (O00329 whole entry): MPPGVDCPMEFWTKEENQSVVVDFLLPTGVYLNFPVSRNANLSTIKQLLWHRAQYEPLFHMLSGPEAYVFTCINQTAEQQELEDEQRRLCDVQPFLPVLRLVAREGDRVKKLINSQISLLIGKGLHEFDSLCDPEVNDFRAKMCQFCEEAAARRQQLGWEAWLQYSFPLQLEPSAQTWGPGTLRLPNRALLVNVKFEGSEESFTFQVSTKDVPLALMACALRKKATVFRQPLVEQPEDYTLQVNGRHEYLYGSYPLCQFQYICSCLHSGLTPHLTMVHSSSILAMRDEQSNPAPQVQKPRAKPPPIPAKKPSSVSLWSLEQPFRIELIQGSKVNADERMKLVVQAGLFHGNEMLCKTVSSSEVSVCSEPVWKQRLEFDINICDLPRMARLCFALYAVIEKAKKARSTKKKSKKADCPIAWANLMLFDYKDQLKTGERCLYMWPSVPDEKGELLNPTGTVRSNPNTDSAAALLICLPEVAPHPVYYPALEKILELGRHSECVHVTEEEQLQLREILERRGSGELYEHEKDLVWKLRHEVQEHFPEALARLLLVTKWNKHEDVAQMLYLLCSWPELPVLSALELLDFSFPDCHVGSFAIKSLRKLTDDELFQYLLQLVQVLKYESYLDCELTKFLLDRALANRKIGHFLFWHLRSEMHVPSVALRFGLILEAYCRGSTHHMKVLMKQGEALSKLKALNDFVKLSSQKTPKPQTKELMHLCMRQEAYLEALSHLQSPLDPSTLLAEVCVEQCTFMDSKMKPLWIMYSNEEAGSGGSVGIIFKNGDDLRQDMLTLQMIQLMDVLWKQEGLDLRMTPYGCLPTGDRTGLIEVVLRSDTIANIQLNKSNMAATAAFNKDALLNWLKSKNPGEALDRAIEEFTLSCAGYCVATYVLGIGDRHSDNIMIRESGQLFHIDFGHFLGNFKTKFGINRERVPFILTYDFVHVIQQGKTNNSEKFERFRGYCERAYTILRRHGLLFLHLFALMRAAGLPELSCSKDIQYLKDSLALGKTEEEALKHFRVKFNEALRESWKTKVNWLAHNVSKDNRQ
Chain of PI3Kδ (p110δ/p85α) (P27986 whole entry partner): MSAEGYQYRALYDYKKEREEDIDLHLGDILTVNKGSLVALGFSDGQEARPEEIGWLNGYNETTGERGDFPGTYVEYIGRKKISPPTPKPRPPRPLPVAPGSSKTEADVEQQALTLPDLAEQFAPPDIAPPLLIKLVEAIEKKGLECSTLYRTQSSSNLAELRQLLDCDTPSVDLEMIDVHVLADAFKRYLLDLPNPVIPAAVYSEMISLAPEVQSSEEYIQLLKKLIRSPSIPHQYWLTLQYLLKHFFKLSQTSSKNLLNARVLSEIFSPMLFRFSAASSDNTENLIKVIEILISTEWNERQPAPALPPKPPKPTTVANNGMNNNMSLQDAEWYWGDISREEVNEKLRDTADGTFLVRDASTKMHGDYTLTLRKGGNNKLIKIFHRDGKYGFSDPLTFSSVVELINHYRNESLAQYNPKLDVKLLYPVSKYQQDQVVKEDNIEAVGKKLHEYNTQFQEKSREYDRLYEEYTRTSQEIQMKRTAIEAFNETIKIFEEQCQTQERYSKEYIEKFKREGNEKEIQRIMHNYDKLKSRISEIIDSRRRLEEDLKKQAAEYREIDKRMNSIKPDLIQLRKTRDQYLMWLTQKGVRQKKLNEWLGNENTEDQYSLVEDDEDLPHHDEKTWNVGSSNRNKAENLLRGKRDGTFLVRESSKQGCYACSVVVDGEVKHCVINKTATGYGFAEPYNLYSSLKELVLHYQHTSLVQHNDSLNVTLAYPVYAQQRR

COc1c(C(C)n2nc(C)c3c(N)ncnc32)cc(Cl)c(C)c1-c1ccnc(C(=O)NCCO)c1 (racemic) [Example 18, 4-{3-[1-(4-Amino-3-methyl-1H-pyrazolo[3,4-d]pyrimidin-1-yl)ethyl]-5-chloro-2-methoxy-6-methylphenyl}-N-(2-hydroxyethyl)pyridine-2-carboxamide]
IC50: < 10 nM

COc1c(C(C)n2nc(C)c3c(N)ncnc32)cc(Cl)c(C)c1C1CN(C(=O)[C@H](C)O)C1 (single isomer, unassigned) [Example 118]
IC50: < 10 nM

COc1c(C(C)n2cc(C)c3c(N)ncnc32)cc(Cl)c(C)c1-c1ccc(C(=O)N(C)C)nc1 (racemic) [Example 42, 5-{3-[1-(4-Amino-5-methyl-7H-pyrrolo[2,3-d]pyrimidin-7-yl)ethyl]-5-chloro-2-methoxy-6-methylphenyl}-N,N-dimethylpyridine-2-carboxamide]
IC50: < 10 nM

CCOc1c(C(C)n2nc(C)c3c(N)ncnc32)cc(Cl)c(C#N)c1-c1ccc(-c2cnn(C)n2)nc1 (racemic) [Example 337, 4-[1-(4-amino-3-methyl-1H-pyrazolo[3,4-d]pyrimidin-1-yl)ethyl]-6-chloro-3-ethoxy-2-[6-(2-methyl-2H-1,2,3-triazol-4-yl)pyridin-3-yl]benzonitrile]
IC50: < 10 nM

CCOc1c(C(C)n2nc(C#C[C@@H](C)O)c3c(N)ncnc32)cc(Cl)c(C)c1-c1ccc(C(=O)N(C)C)nc1 (stereo partly drawn) [Example 79, 5-[3-(1-{4-Amino-3-[(3R)-3-hydroxybut-1-yn-1-yl]-1H-pyrazolo[3,4-d]pyrimidin-1-yl}ethyl)-5-chloro-2-ethoxy-6-methylphenyl]-N,N-dimethylpyridine-2-carboxamide bis(trifluoroacetate)]
IC50: < 10 nM

COc1c(C(C)n2nc(C)c3c(N)ncnc32)cc(Cl)c(C)c1C1CN(C2CCOCC2)C1 (racemic) [Example 64, 1-(1-{5-chloro-2-methoxy-4-methyl-3-[1-(tetrahydro-2H-pyran-4-yl)azetidin-3-yl]phenyl}ethyl)-3-methyl-1H-pyrazolo[3,4-d]pyrimidin-4-amine]
IC50: < 10 nM

COc1c(C(C)n2nc(C)c3c(N)ncnc32)cc(Cl)c(C#N)c1C1CN(C(=O)NC(C)(C)C)C1 (single isomer, unassigned) [Example 292, 3-{3-[1-(4-Amino-3-methyl-1H-pyrazolo[3,4-d]pyrimidin-1-yl)ethyl]-5-chloro-6-cyano-2-methoxyphenyl}-N-(tert-butyl)azetidine-1-carboxamide]
IC50: < 10 nM

COc1c(C(C)n2nc(C)c3c(N)ncnc32)cc(Cl)c(C#N)c1C1CN(C(=O)N(C)C)C1 (single isomer, unassigned) [Example 296, 3-{3-[1-(4-Amino-3-methyl-1H-pyrazolo[3,4-d]pyrimidin-1-yl)ethyl]-5-chloro-6-cyano-2-methoxyphenyl}-N,N-dimethylazetidine-1-carboxamide]
IC50: < 10 nM

CCOc1c(C(C)n2nc(C)c3c(N)ncnc32)cc(Cl)c(F)c1C1CN(CC(F)F)C1 (racemic) [Example 147, 1-(1-{5-Chloro-3-[1-(2,2-difluoroethyl)azetidin-3-yl]-2-ethoxy-4-fluorophenyl}ethyl)-3-methyl-1H-pyrazolo[3,4-d]pyrimidin-4-amine]
IC50: < 10 nM

COc1c(C(C)n2nc(C)c3c(N)ncnc32)cc(Cl)c(C)c1-c1cnn(CCN(C)C)c1 (single isomer, unassigned) [Example 183, 1-[1-(5-Chloro-3-{1-[2-(dimethylamino)ethyl]-1H-pyrazol-4-yl}-2-methoxy-4-methylphenyl)ethyl]-3-methyl-1H-pyrazolo[3,4-d]pyrimidin-4-amine]
IC50: < 10 nM

COc1c(C(C)n2nc(C)c3c(N)ncnc32)cc(Cl)c(C#N)c1C1CN(C(C)CO)C1 (single isomer, unassigned) [Example 273, 4-[1-(4-amino-3-methyl-1H-pyrazolo[3,4-d]pyrimidin-1-yl)ethyl]-6-chloro-2-[1-(2-hydroxy-1-methylethyl)azetidin-3-yl]-3-methoxybenzonitrile]
IC50: < 10 nM
